Results reported in patent US5767268A, “Sulfuric acid esters of amino sugars” (Hoffmann-La Roche Inc., priority 1995, dated 1998).
Structures can show the parent of a compound that is named as a salt.

Legend:
thrombin = target: T1, thrombin (Homo sapiens, UniProt P00734); assay type: biochemical; settings: with antithrombin III and plasma, S-2238 substrate, 37° C., pH 8.4; read-out: Anticoagulative Activity IC50 Thrombin
T1 construct: purchased Roche Basle (Thrombin Reagent)
Description: (§1) Inhibition of thrombin or Factor Xa in the Chromogen Substrate Test (Teien et al., Thrombosis Research 10, 399-410 (1977)): The determination was effected in a Cobas-Bio centrifugal automatic spectrophotometer. The buffer solution used consisted of 50 mM Tris buffer, 180 mM NaCl, 7.5 mM EDTA Na2, 1% PEG 6000 and 0.02% Tween 80, pH 8.4. The test solution consisted of 50 μl of buffer, 30 μl of antithombin III (1U/ml, Kabi Diagnostica) and 20 μl of plasma which contained various concentrations of test compounds. 30 μl of sample solution and 20 μl of water with 180 μl of thrombin (1U/ml, Thrombin Reagent Roche Basle) were added to the test cuvette in the automatic analyzer. After incubation at 37° C. for 240 seconds, 60 μl of S-2238 (H-D-Phe-Pip-Arg-NH.pNA, Kabi Diagnostica, Mondal, Sweden, 0.75 mM in water) and 20 μl of water were added. The liberation of pNA (p-nitro-aniline) was followed during 60 seconds at 405 nm in 10 second intervals in comparison to water as the blank.

Factor Xa = target: T2, Factor Xa (Bos taurus, UniProt P00743); experiment: Blood coagulation inhibition: inhibition of Factor Xa in the Chromogen Substrate Test; assay type: biochemical; settings: with antithrombin III and plasma, S-2222 substrate; read-out: Anticoagulative Activity IC50 Factor Xa
T2 sequence (P00743 41-180 limits assumed): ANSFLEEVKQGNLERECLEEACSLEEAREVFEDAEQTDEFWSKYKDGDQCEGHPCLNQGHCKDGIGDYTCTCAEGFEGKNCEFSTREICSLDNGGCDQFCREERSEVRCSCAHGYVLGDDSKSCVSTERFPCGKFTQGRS
Description: as §1
The inhibition of Factor Xa was measured in the same manner using a solution of Factor Xa (2.8 nkat/ml and 2 mM S-2222 (Bz-CO-Ile-Glu-Arg-NH.pNA, Kabi Diagnostica) in water in place of thrombin and, respectively, S-2238.

[1] = test system: neointima in rat carotids; experiment: In vivo assay of the antiproliferative activity in damaged rat carotids (neointima); design: species or system rat (male Wistar Kyoto); settings: 1 mg/kg/h i.v., p<0.001 t-test
Description: In vivo assay for the determination of the antiproliferative activity of the compounds in accordance with the invention in damaged rat carotids
After narcosis, the left carotids of male Wistar Kyoto rats (300-400 g) were damaged with a 2 F embolectomy catheter by drawing the catheter in the pumped-up state three times through the vessel. After wound healing, the animals were kept in pairs with standard feed and water ad libidum.
The compounds were administered in concentrations of 0.3-1 mg/kg/h i.v. For this purpose, during the narcosis an osmotic minipump was implanted into the animals under the dorsal skin and was attached to the jugular vein. Thus, the compounds could be administered constantly during the entire test period of 14 days.
After 14 days proliferative tissue (neointima) had formed, the size of which could be determined morphometrically on histological cross-sections.For this purpose, the rats were sacrificed and perfusion-fixed with glutaraldehyde.

rat smooth muscle cells = experiment: Antiproliferative activity (ri, relative to heparin) in rat smooth muscle cells; assay type: cell-based; design: key: growth inhibition relative to heparin at 100 μg/ml, same experiment; settings: 100 μg/ml, 48 h, relative to heparin at 100 μg/ml in the same experiment
Description: Antiproliferative Activity
The antiproliferative activity of a substance is expressed as the ri value which is a comparative value to the corresponding activity of heparin and which was determined in cell cultures as follows: rat smooth muscle cells were applied to cell culture plates in a density of 8×10^3 cells/well (medium: DMEM with 10% FCS. Cultivation at 37° C. and 5% CO2). After 4 hours, the number of adhered cells was determined and the substances to be tested (100 μg/ml, dissolved in H2 O) were added. […] Subsequently, the cells were incubated for 48 h. and thereafter the cell count was determined once more.
The inhibition i of the cell growth, that is, the reduction in the growth rate of the cells in percent compared to the control, was calculated from these values. [formula] the growth rate μbeing calculated as [formula] in which Z is the number of cells and d is the time in days.
Finally, ri --the relative inhibitory activity--which expresses the activity of a substance (at 100 μg/ml) in comparison to the activity of heparin in the same concentration in the same experiment, was calculated: [formula] Blood Coagulation Inhibition

Compound | IC50 (thrombin) [µM] | IC50 (Factor Xa) [µM] | cross-sectional area of the neointima in rat carotids 14 days after balloonisation [1] | Antiproliferative Activity ri (relative inhibitory activity versus heparin) (rat smooth muscle cells)
O=C(N[C@H]1[C@@H](OCc2ccccc2)O[C@H](CNC(=O)[C@H](OS(=O)(=O)O)[C@@H](OS(=O)(=O)O)[C@H](OS(=O)(=O)O)[C@@H](COS(=O)(=O)O)OS(=O)(=O)O)[C@@H](OS(=O)(=O)O)[C@@H]1OS(=O)(=O)O)c1ccc(-c2ccc(C(=O)N[C@H]3[C@@H](OCc4ccccc4)O[C@H](CNC(=O)[C@H](OS(=O)(=O)O)[C@@H](OS(=O)(=O)O)[C@H](OS(=O)(=O)O)[C@@H](COS(=O)(=O)O)OS(=O)(=O)O)[C@@H](OS(=O)(=O)O)[C@@H]3OS(=O)(=O)O)cc2)cc1 [Example 14, Biphenyl-4,4'-dicarboxylic acid bis-[[benzyl 2,6-didesoxy-3,4-di-O-sulfo-6-(2,3,4,5,6-penta-O-sulfo-D-gluconoylamino)-a-D-glucopyranosid-2-yl]-amide] tetradecasodium salt] | > 450 | > 450 | significantly reduced | 1.2
O=C(N[C@H]1[C@@H](OCc2ccccc2)O[C@H](CNC(=O)[C@H](OS(=O)(=O)O)[C@@H](OS(=O)(=O)O)[C@H](OS(=O)(=O)O)[C@@H](COS(=O)(=O)O)OS(=O)(=O)O)[C@@H](OS(=O)(=O)O)[C@@H]1OS(=O)(=O)O)c1cccc(C(=O)N[C@H]2[C@@H](OCc3ccccc3)O[C@H](CNC(=O)[C@H](OS(=O)(=O)O)[C@@H](OS(=O)(=O)O)[C@H](OS(=O)(=O)O)[C@@H](COS(=O)(=O)O)OS(=O)(=O)O)[C@@H](OS(=O)(=O)O)[C@@H]2OS(=O)(=O)O)c1 [Example 24, Isophthalic acid bis-[[benzyl 2,6-didesoxy-6-(2,3,4,5,6-penta-O-sulfo-D-gluconoylamino)-3,4-di-O-sulfo-a-D-gluco-pyranosid-2-yl]-amide] tetradecasodium salt] | – | – | significantly reduced | –
